Test [1] has as its target T1, human MC3R (Homo sapiens, UniProt P41968).
T1 construct: expressed in transfected cells
Nature of the test: cAMP assay (LANCE) in T-Rex-293 cells expressing MC3R. It counts as cell-based. Conditions: cAMP assay; mean (± SEM) of at least three independent experiments; read-out: EC50 hMC3R cAMP. A general note: Cyclic AMP is a second messenger, typically raised through Gs and lowered through Gi signalling.

For test [2], the target named is T2, human MC1R (Homo sapiens, UniProt Q01726).
T2 construct: expressed in transfected cells
T2 sequence (Q01726 whole entry): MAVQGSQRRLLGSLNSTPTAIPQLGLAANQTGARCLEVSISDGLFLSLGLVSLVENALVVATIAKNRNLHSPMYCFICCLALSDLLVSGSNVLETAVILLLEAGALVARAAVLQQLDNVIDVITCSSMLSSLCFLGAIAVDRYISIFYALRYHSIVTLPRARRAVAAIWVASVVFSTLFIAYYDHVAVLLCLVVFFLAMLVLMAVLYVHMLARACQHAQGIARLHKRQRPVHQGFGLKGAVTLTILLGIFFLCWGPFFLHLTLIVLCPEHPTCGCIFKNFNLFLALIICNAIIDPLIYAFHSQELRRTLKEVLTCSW
Briefly: Melanocortin receptor radioligand binding (SPA, [125I]-NDP-α-MSH displacement), MC1R. To be noted: competitive binding, mean (± SEM) of at least three independent experiments, read-out: IC50 hMC1R binding.

The target in test [3] is T3, human MC5R (Homo sapiens, UniProt P33032).
T3 construct: expressed in transfected cells; host or cells: HEK293-6E suspension cells, transient expression; membranes
T3 sequence (P33032 whole entry): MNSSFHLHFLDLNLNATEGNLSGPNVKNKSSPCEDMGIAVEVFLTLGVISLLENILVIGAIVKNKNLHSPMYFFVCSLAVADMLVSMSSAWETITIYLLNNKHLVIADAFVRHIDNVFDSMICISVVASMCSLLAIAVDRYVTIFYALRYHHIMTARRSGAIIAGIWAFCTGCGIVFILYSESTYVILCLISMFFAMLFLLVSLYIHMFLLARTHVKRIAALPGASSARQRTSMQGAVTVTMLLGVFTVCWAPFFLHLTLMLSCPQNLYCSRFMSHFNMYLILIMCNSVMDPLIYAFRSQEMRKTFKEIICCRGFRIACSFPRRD
Briefly: Melanocortin receptor radioligand binding (SPA, [125I]-NDP-α-MSH displacement), MC5R. To be noted: competitive binding, [125I]-NDP-α-MSH; mean (± SEM) of at least three independent experiments; read-out: IC50 hMC5R binding.

In test [4] the target is hMC1−5R. Nature of the test: Melanocortin receptor radioligand binding, result stated for all receptors together. Set-up: species or system human. An excerpt: Example concentration response curves for selected PepNats in MC1R, MC3R, MC4R, MC5R radioligand binding assays and MC1R, MC3R, MC4R cAMP assays. Responses were normalized to reference agonist NDP -α-MSH and presented as % effect of control, with full competition in binding defined as -100% and full agonism in cAMP assays defined as […]
binding assay. Threshold to define a compound as active was set to -30% in binding assays and 20% in cAMP assays respectively. Data are from at least three independent experiments and error bars represent ± Standard Error of the […]
% s p e c ific b in d in g o f
(1 picture or pasted object on this page, not shown here) […]
expression, MC1R and MC4R transfected cells were treated with 0.1 ng /mL and MC3R transfected cells with 10 ng/mL doxycyclin, for 24 h before assay.
Melanocortin receptor radioligand binding and cAMP assays.
Binding and cAMP assays were performed as described by Durek et al.7 “A 384-well format scintillation proximity assay (SPA) was used to identify compounds that show competitive binding to the human Melanocortin receptor 1,3,4 or 5 ligand binding domain (LBD). […] The inhibition of the scintillation signal by displacement of [ 125I]- NDP-α-MSH by test compounds were detected by a 1450 MicroBeta Trilux scintillation counter […]
Plates were incubated for 16-23 h in the dark at room temperature before reading on a 1450 […]
Measurements of cAMP production were performed using LANCE® cAMP kits (PerkinElmer) in a total assay volume of 12 µl/well. […] The reaction was stopped with detection buffer containing 10 µM Biotin-cAMP and 15 µM LANCE Eu-W8044 labelled streptavidin (PerkinElmer LANCE cAMP kit). cAMP production was detected by homogenous time resolved fluorescence (HTRF) (λex = 340 nm, λem = 665 and 615 nm) using a Pherastar (BMG Labtech).
PepNats, literature compounds and references were tested in ten-point concentration response (½ log serial dilution) with 100, 10 or 1 µM as final start concentrations. Raw data output was analyzed in Screener software (Genedata AG) and pEC50 and pIC50 values calculated using a four-

Test [5] deals with T1, human MC3R. Nature of the test: Melanocortin receptor radioligand binding (SPA, [125I]-NDP-α-MSH displacement), MC3R. To be noted: competitive binding, mean (± SEM) of at least three independent experiments, read-out: IC50 hMC3R binding.
For test [6], the target named is T2, human MC1R. Nature of the test: cAMP assay (LANCE) in T-Rex-293 cells expressing MC1R. The format is cell-based.

Results on 1 compound are retold here after PMC7307906, “Macrocyclic Modalities Combining Peptide Epitopes and Natural Product Fragments” (Journal of the American Chemical Society, 2020).

T1 sequence (P41968 whole entry): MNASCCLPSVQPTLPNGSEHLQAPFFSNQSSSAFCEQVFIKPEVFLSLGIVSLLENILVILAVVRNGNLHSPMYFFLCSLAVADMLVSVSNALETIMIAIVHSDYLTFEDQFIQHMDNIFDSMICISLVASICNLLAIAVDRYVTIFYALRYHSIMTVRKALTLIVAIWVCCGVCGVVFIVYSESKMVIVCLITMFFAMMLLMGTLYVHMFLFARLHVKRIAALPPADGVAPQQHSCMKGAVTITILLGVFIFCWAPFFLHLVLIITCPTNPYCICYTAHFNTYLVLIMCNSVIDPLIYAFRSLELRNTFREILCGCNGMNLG

As a reminder, the EC50 is the concentration at which the effect is half-maximal. For orientation: IC50 means the concentration that inhibits the measured activity by half. `CN1C(=O)[C@H]2N[C@@H](c3ccc(cc3)C(=O)NCCCC[C@@H](C(=O)N[C@@H](Cc3ccc(O)cc3)C(N)=O)NC(=O)[C@H](CC(N)=O)NC(=O)[C@@H](Cc3ccccc3)NC(=O)[C@@H](Cc3ccccc3)NC(=O)[C@H](CCCNC(=N)N)NC(=O)[C@@H]1Cc1ccccc1)[C@H]1C(=O)N(c3ccccc3)C(=O)[C@H]12` [K1-minor, [II-FRffNK ]Y]: the EC50 in test [1] is greater than 100 µM; in test [6] (cAMP assay, mean (± SEM) of at least three independent experiments, read-out: EC50 hMC1R cAMP), greater than 100 µM. Also, the IC50 was greater than 100 µM in test [2]; greater than 100 µM in test [3]; greater than 100 µM in test [4] (competitive binding, one bound printed for all receptors); greater than 100 µM in test [5]. The “binding to the MC receptors (in words)” value in test [4] (human MC receptors, radioligand binding) is recorded as “did not bind to any of the receptors”. Besides, the “% Effect hMC1R cAMP at 100 µM” value in test [6] (% effect at 100 µM, compounds not reaching an upper plateau (§)) worked out at 30%.
